The text below walks through data of patent publication US4725601A, “Certain imidazo[1,2-a]pyridines useful in the treatment of ulcers” (Fujisawa Pharmaceutical Co., Ltd., priority 1985, dated 1988).

Assay [1] deals with ethanol ulcer. The assay can be described thus: Inhibition on ethanol ulcer. The assay is classed as in vivo, male Spraque-Dawley rats. The note with it: rat, oral, 30 minutes before absolute ethanol; for Inhibition %: 32 mg/kg, ulcer area vs control. Here is the method:
(A) Inhibition on ethanol ulcer
Five male Spraque-Dawley rats, aged 7 weeks and weighing about 200 g, were used per group for the study on ethanol ulcer after the fast for 24 hours.
Test compound was suspended in 0.1% methylcellulose aqueous solution, and the suspension (5 ml/kg) was orally given to each rat.
The control group was given a vehicle, i.e. 0.1% methylcellulose aqueous solution (5 ml/kg), alone in the same way.
Absolute ethanol (5 ml/kg) was orally administered 30 minutes after dosing with test compound, and one hour later, the rats were sacrificed and their stomachs were removed. The area of ulcers of each rat was measured. The mean area […] in the medicated group was compared with that in the control group.

Assay [2] relates to stress ulcer. The assay is described as follows: Inhibition on stress ulcer. To be noted: stress ulcer (immobilization, water bath 22° C., seven hours), rat, oral; for Inhibition %: 32 mg/kg, ulcer area vs control. The assay is classed as in vivo, Sprague-Dawley rats. Here is the method:
(B) Inhibition on stress ulcer
Five Sprague-Dawley rats weighing about 200 g were used per group. Each animal was immobilized in a small cage and put in a water bath allowing to respire. The temperature of the water bath kept at 22° C. The test compound was administered orally just before the immobilization. Seven hours later, the animals were sacrificed and their stomachs were removed. The stomach was then fixed with 2% formalin. The area of ulcers was measured for each animal. The mean area (mm^2) in the medicated animals was compared with that in the control animals.

For `C#CCOCc1c(C)nc2c(OCc3ccccc3C)cccn12` [Test Compound (1), 8-(2-Methylbenzyloxy)-3-(2-propynyloxymethyl)-2-methylimidazo[1,2-a]pyridine], the Inhibition % in assay [1] was 94.4%; in assay [2], 100%. Besides, the 50% effective dose (ED50) – broadly, the midpoint of the dose-response relation – in assay [1] came out at 1.1 mg/kg; in assay [2] (7 h), 0.15 mg/kg.

Turning to `C#CCOCc1c(C)nc2c(OCc3ccccc3Cl)cccn12` [Test Compound (2), 8-(2-Chlorobenzyloxy)-3-(2-propynyloxymethyl)-2-methylimidazo[1,2-a]pyridine], the Inhibition % in assay [1] amounted to 98.2%; in assay [2], 100%.

For the molecule `C#CCc1c(C)nc2c(OCc3ccccc3C)cccn12` [Test Compound (3), 8-(2-Methylbenzyloxy)-3-(2-propynyl)-2-methylimidazo[1,2-a]pyridine], the results for the Inhibition % in assay [1] and in assay [2] were 91.8% and 100%, respectively.
